Measurements taken from PMC6696278 (International Journal of Molecular Sciences, 2019).

Legend:
Format in all cases: binding
[1] = target: T1, human galectin-9N (N-terminal domain) (Homo sapiens, UniProt O00182); assay: competitive fluorescence polarization assay, galectin-9N; conditions: Table 2, average and SEM, PBS
T1 construct: 4N (N-terminal domain) 4C (C-terminal domain), 7, 8N, 8C, 9N, and 9C; made in house
Source text: (§1) Human galectin-1 [25], galectin-2 [26], galectin-3 [27], galectin-4N [19], galectin-4C [19], galectin-8N [28], galectin-8C [28], galectin-9N [29], and galectin-9C [30], were expressed and purified as described earlier. Human galectin-7 was expressed using a pET3c plasmid in E. coli BL21-star. The plasmid containing expression optimized DNA encoding the full human galectin-7 sequence (NCBI Reference Sequence: NP_002298.1) was obtained from GenScript (Piscataway, NJ, USA). Bacterial culture and induction, and galectin purification was essential as described for galectin-3 expressed with the same vector [27]; a typical yield was 1.5–2 mg/L culture. Lactose was removed by chromatography on a PD-10 column (Amersham Biosciences) with repeated ultrafiltration with Centriprep (Amicon).
(§2) Fluorescence polarization experiments were carried out either with a POLARStar plate reader and FLUOstar Galaxy software or with a PheraStarFS plate reader and PHERAstar Mars version 2.10 R3 software (BMG, Offenburg, Germany). The dissociation constant (Kd) values were determined in PBS as described earlier. Specific conditions for galectin-1, 2, 3, 4N, 4C, 8N, 8C, 9N, and 9C were kept as reported. Experiments were performed at room temperature with human galectin-7 at 5 µM and the fluorescent probe β-D-galactopyranosyl-(1–4)-2-acetamido-2-deoxy-β-d-glucopyranosyl-(1–3)-β-d-galactopyranosyl-(1–4)-(N1-fluorescein-5-yl-carbonylaminomethylcarbonyl)-β-D-glucopyranosylamine at 0.02 µM. All the compounds in Table 1 except 32 were dissolved in a neat DMSO at 100 mM and diluted in PBS to three to six different concentrations to be tested in duplicate.

[2] = target: T2, human galectin-2 (Homo sapiens, UniProt P05162); assay: competitive fluorescence polarization assay, galectin-2; conditions: Table 2; average and SEM; PBS
T2 construct: made in house
T2 sequence (P05162 1-132): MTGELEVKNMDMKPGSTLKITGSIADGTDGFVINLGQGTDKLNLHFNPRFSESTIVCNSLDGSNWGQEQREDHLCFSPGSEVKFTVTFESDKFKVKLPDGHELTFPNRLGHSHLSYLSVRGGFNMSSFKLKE
Source text: as §1, §2

[3] = target: T3, human galectin-9C (C-terminal domain) (Homo sapiens, UniProt O00182); assay: competitive fluorescence polarization assay, galectin-9C; conditions: Table 2, average and SEM, PBS
T3 construct: 4N (N-terminal domain) 4C (C-terminal domain), 7, 8N, 8C, 9N, and 9C; made in house
Source text: as §1, with “Bacterial culture and induction, and galectin purification was essential as described for galectin-3 expressed with the same vector [27]; a typical yield was 1.5–2 mg/L culture.” left out
as §2

[4] = target: T4, human galectin-8C (C-terminal domain) (Homo sapiens, UniProt O00214); assay: competitive fluorescence polarization assay, galectin-8C; conditions: Table 2, average and SEM, PBS
T4 construct: 4N (N-terminal domain) 4C (C-terminal domain), 7, 8N, 8C, 9N, and 9C; made in house
T4 sequence (O00214 187-317 limits assumed): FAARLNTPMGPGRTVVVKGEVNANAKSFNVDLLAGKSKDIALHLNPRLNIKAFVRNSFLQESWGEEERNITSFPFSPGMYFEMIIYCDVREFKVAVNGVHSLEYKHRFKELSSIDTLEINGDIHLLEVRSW
Source text: as §1, with “Bacterial culture and induction, and galectin purification was essential as described for galectin-3 expressed with the same vector [27]; a typical yield was 1.5–2 mg/L culture.” left out
as §2

[5] = target: T5, human galectin-4C (C-terminal domain) (Homo sapiens, UniProt P56470); assay: competitive fluorescence polarization assay, galectin-4C; conditions: Table 2, average and SEM, PBS
T5 construct: 4N (N-terminal domain) 4C (C-terminal domain); made in house
T5 sequence (P56470 194-323 limits assumed): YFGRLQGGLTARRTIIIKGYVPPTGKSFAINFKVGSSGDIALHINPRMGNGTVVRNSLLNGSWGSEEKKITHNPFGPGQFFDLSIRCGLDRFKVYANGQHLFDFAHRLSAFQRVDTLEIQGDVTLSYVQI
Source text: as §1, with “Bacterial culture and induction, and galectin purification was essential as described for galectin-3 expressed with the same vector [27]; a typical yield was 1.5–2 mg/L culture.” left out
as §2

[6] = target: T6, human galectin-4N (N-terminal domain) (Homo sapiens, UniProt P56470); assay: competitive fluorescence polarization assay, galectin-4N; conditions: Table 2; N-terminal domain; average and SEM; PBS
T6 construct: 4N (N-terminal domain) 4C (C-terminal domain); made in house
T6 sequence (P56470 19-150 limits assumed): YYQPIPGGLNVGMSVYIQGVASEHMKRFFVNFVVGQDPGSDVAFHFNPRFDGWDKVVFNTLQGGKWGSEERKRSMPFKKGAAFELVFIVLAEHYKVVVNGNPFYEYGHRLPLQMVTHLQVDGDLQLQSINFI
Source text: as §1, §2

[7] = target: T7, human galectin-8N (N-terminal domain) (Homo sapiens, UniProt O00214); assay: competitive fluorescence polarization assay, galectin-8N; conditions: Table 2, average and SEM, PBS
T7 construct: 4N (N-terminal domain) 4C (C-terminal domain), 7, 8N, 8C, 9N, and 9C; made in house
T7 sequence (O00214 19-152 limits assumed): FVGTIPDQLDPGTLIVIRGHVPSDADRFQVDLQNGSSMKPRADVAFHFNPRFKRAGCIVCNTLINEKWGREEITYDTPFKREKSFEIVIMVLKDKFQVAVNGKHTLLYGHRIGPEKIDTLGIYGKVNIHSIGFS
Source text: as §1, with “Bacterial culture and induction, and galectin purification was essential as described for galectin-3 expressed with the same vector [27]; a typical yield was 1.5–2 mg/L culture.” left out
as §2

[8] = target: T8, human galectin-1 (Homo sapiens, UniProt P09382); assay: competitive fluorescence polarization assay, galectin-1; conditions: for Kd: Table 2, average and SEM of 4–8 single-triple point measurements, PBS
T8 construct: made in house
Source text: as §1, with “Bacterial culture and induction, and galectin purification was essential as described for galectin-3 expressed with the same vector [27]; a typical yield was 1.5–2 mg/L culture.” left out
as §2

[9] = target: T9, human galectin-7 (Homo sapiens, UniProt P47929); assay: competitive fluorescence polarization assay, galectin-7; conditions: Table 2; average and SEM; PBS, room temperature, galectin-7 at 5 µM, probe 0.02 µM
T9 construct: made in house; host or cells: E. coli BL21-star, pET3c plasmid (DNA from GenScript)
Source text: as §1, §2

[10] = target: T10, human galectin-3 (Homo sapiens, UniProt P17931); assay: competitive fluorescence polarization assay, galectin-3; conditions: Table 2; average and SEM; PBS
T10 construct: made in house; host or cells: vector pET3c (the same vector as galectin-7)
Source text: as §1, with “Bacterial culture and induction, and galectin purification was essential as described for galectin-3 expressed with the same vector [27]; a typical yield was 1.5–2 mg/L culture.” left out
as §2

T1 sequence (O00182 17-148 limits assumed): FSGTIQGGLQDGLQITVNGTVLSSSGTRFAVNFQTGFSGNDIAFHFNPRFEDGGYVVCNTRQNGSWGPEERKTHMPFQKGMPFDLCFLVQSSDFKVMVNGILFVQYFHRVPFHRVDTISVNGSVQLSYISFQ
T9 sequence (P47929 whole entry): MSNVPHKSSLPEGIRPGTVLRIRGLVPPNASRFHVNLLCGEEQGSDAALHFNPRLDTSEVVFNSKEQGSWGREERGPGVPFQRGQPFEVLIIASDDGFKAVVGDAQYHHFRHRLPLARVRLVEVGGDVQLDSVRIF
T10 sequence (P17931 whole entry): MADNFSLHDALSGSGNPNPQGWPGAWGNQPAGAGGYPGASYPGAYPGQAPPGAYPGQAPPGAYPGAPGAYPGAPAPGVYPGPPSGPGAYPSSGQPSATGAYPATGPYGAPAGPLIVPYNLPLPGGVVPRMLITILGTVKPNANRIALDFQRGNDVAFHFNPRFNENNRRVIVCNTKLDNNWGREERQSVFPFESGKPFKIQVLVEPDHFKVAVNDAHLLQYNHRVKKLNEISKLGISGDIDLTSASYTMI
T3 sequence (O00182 227-355 limits assumed): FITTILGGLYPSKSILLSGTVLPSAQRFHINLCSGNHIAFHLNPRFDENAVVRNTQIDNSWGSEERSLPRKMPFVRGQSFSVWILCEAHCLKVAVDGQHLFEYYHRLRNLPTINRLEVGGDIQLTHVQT
T8 sequence (P09382 whole entry): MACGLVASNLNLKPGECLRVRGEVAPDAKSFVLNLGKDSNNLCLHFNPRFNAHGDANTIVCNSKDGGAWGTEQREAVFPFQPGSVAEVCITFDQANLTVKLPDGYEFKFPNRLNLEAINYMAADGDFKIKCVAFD

Row | Kd [1] [mM] | Kd [2] [mM] | Kd [3] [mM] | Kd [4] [mM] | Kd [5] [mM] | Kd [6] [mM] | Kd [7] [mM] | Kd [8] [mM] | Kd [9] [mM] | Kd [10] [mM] | fold better affinity for galectin-1 than reference methyl β-D-galactopyranoside 32 ([8]; ratio of Kd values) [fold] | binding to galectin-1 (in words) ([8]; under the assay conditions) | Compound
1 | > 4 | > 4 | > 4 | > 4 | > 4 | 1.7 ± 0.07 | > 4 | 1.7 ± 0.06 | > 4 | 1.6 ± 0.03 | – | – | CO[C@@H]1O[C@H](CO)[C@H](O)[C@H](CNC(=O)c2ccc(F)cc2)[C@H]1O [Compound 7e, Methyl 3-Deoxy-3-C-(4-Fluorobenzamidomethyl)-β-D-Galactopyranoside]
2 | > 4 | > 4 | > 4 | > 4 | > 4 | > 4 | > 4 | 2.5 ± 0.4 | > 4 | > 4 | – | – | CO[C@@H]1O[C@H](CO)[C@H](O)[C@H](CNC(=O)c2cc(F)c(F)c(F)c2)[C@H]1O [Compound 7f, Methyl 3-Deoxy-3-C-(3,4,5-Trifluorobenzamidomethyl)-β-D-Galactopyranoside]
3 | > 4 | > 4 | > 4 | > 4 | > 4 | > 4 | > 4 | 0.7 ± 0.005 | > 4 | > 4 | 14 | – | CO[C@@H]1O[C@H](CO)[C@H](O)[C@H](CNC(=O)c2c(F)c(F)c(F)c(F)c2F)[C@H]1O [Compound 7g, Methyl 3-Deoxy-3-C-(2,3,4,5,6-Pentafluorobenzamidomethyl)-β-D-Galactopyranoside]
4 | > 4 | > 4 | > 4 | > 4 | > 4 | > 4 | > 4 | 3.2 ± 0.5 | > 4 | > 4 | – | – | COc1cccc(C(=O)NC[C@H]2[C@@H](O)[C@@H](CO)O[C@@H](OC)[C@@H]2O)c1 [Compound 7h, Methyl 3-Deoxy-3-C-(3-Methoxybenzamidomethyl)-β-D-Galactopyranoside]
5 | > 4 | > 4 | > 4 | > 4 | > 4 | > 4 | > 4 | 2.3 ± 0.4 | > 4 | > 4 | – | – | CO[C@@H]1O[C@H](CO)[C@H](O)[C@H](CNC(=O)c2ccc(C)cc2)[C@H]1O [Compound 7i, Methyl 3-Deoxy-3-C-(p-Toluamidomethyl)-β-D-Galactopyranoside]
6 | > 4 | > 4 | > 4 | 2.6 ± 0.6 | > 4 | 2 ± 0.4 | > 4 | 1.8 ± 0.04 | > 4 | > 4 | – | – | COc1cc(OC)cc(C(=O)NC[C@H]2[C@@H](O)[C@@H](CO)O[C@@H](OC)[C@@H]2O)c1 [Compound 7j, Methyl 3-Deoxy-3-C-(3,5-Dimethoxybenzamidomethyl)-β-D-Galactopyranoside]
7 | > 4 | > 4 | > 4 | > 4 | > 4 | 1.9 ± 0.1 | > 4 | 1.8 ± 0.07 | > 4 | > 4 | – | – | CO[C@@H]1O[C@H](CO)[C@H](O)[C@H](CNC(=O)c2cccc(C(F)(F)F)c2)[C@H]1O [Compound 7k, Methyl 3-Deoxy-3-C-(3-Trifluoromethylbenzamidomethyl)-β-D-Galactopyranoside]
8 | > 4 | > 4 | > 4 | > 4 | > 4 | > 4 | > 4 | > 4 | > 4 | > 4 | – | did not bind | CO[C@@H]1O[C@H](CO)[C@H](O)[C@H](CNC(=O)c2ccc(-c3ccccc3)cc2)[C@H]1O [Compound 7l, Methyl 3-Deoxy-3-C-(4-Phenylbenzamidomethyl)-β-D-Galactopyranoside]
